In the supplement of paper PMC10011410:

Key:
U-2 OS [1] = assay: cell painting activity score (Mahalanobis distance from DMSO wells); higher = stronger morphological phenotype; settings: 24 h
Experimental: (§1)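 Cell painting in U-2 OS cells (384-well, about 1,500 cells per well), compound exposure 24 h, usually six 2-fold concentrations from 20 to 0.625 uM (some compounds higher or lower). Relative cell count is the cell number per well relative to DMSO wells. Activity score is the Mahalanobis distance of the morphological profile from DMSO control wells. Mean of four technical replicate plates.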

U-2 OS [2] = assay: relative cell count vs DMSO (cell painting) (fraction of DMSO control); higher = more cells remaining (less cytotoxic); settings: 24 h
Experimental: as §1

U-2 OS [3] = assay: AUC of culture confluence over time (live-cell imaging) (AUC (confluence % x time)); higher = more confluent culture (less growth inhibition)
Experimental: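 Live-cell Incucyte imaging of U-2 OS cells in F-12K medium. Compounds were tested mostly at 5, 10 and 20 uM, and cells were imaged every 4 h for up to 60 h. Value is the area under the curve of phase-contrast confluence over time.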

| SMILES | cell painting activity score (U-2 OS [1]; 0.625 µM) | cell painting activity score (U-2 OS [1]; 1.25 µM) | cell painting activity score (U-2 OS [1]; 2.5 µM) | cell painting activity score (U-2 OS [1]; 5 µM) | cell painting activity score (U-2 OS [1]; 10 µM) | cell painting activity score (U-2 OS [1]; 20 µM) | relative cell count (U-2 OS [2]; 0.625 µM) | relative cell count (U-2 OS [2]; 1.25 µM) | relative cell count (U-2 OS [2]; 2.5 µM) | relative cell count (U-2 OS [2]; 5 µM) | relative cell count (U-2 OS [2]; 10 µM) | relative cell count (U-2 OS [2]; 20 µM) | AUC of culture confluence over time (U-2 OS [3]; 5 µM) | AUC of culture confluence over time (U-2 OS [3]; 10 µM) | AUC of culture confluence over time (U-2 OS [3]; 20 µM) |
| --- | --- | --- | --- | --- | --- | --- | --- | --- | --- | --- | --- | --- | --- | --- | --- |
| CC1(C)CC[C@]2(C(=O)O[C@@H]3O[C@H](CO)[C@@H](O)[C@H](O)[C@H]3O)CC[C@]3(C)C(=CC[C@@H]4[C@@]5(C)CC[C@H](O[C@@H]6O[C@H](C(=O)O)[C@@H](O)[C@H](O)[C@H]6O[C@@H]6O[C@H](CO)[C@@H](O)[C@H](O)[C@H]6O)C(C)(C)[C@@H]5CC[C@]43C)[C@@H]2C1 | 4.68 | 4.76 | 5.42 | 5.24 | 6.27 | 9.37 | 0.971 | 0.973 | 0.949 | 0.938 | 0.915 | 0.964 | 54.4 | 51.1 | 57.6 |
| CNC(=O)c1cc(Oc2ccc(NC(=O)Nc3ccc(Cl)c(C(F)(F)F)c3)cc2)ccn1 | 10.7 | 11.4 | 10.3 | 12.4 | 9.94 | 10.5 | 1.02 | 0.956 | 0.971 | 0.978 | 0.705 | 0.348 | 50.1 | 29.6 | 15.6 |
| CCC(=O)CCCCC[C@@H]1NC(=O)[C@H]2CCCCN2C(=O)[C@H]([C@@H](C)CC)NC(=O)[C@H](Cc2cn(OC)c3ccccc23)NC1=O | 16.3 | 16 | 16.4 | 16 | 13.2 | 13.1 | 0.946 | 0.821 | 0.617 | 0.59 | 0.617 | 0.553 | 22.3 | 21.7 | 19.6 |
| CN1C(=O)[C@]23CC4=CC=C[C@H](O)[C@H]4N2C(=O)[C@@]1(CO)SS3 | 17.6 | 31.2 | 35.5 | 29.6 | 26.9 | 36.5 | 0.197 | 0.0207 | 0.0068 | 0.0047 | 0.00462 | 0.00499 | 7.79 | 7.52 | 8.46 |
| Oc1cc(O)cc(/C=C/c2ccc(O)c(O)c2)c1 | 3.37 | 3.39 | 4.93 | 8.04 | 10.9 | 13.7 | 1.06 | 1.01 | 0.995 | 0.951 | 0.958 | 0.886 | 49.3 | 53.9 | 45.4 |
| O=C(O)CCCc1ccc(N(CCCl)CCCl)cc1 | 4.38 | 5.9 | 8 | 10.4 | 10.8 | 12.6 | 0.967 | 0.951 | 0.908 | 0.881 | 0.837 | 0.784 | 50.2 | 44.6 | 36.8 |
| C/C1=C/C(=O)O[C@@H]2C[C@@H](CC[C@H](C)/C=C\CC1)O[C@@](O)([C@@H]1CSC(=O)N1)C2 | 8.28 | 14.2 | 15.4 | 14.9 | 17.7 | 20 | 0.941 | 0.878 | 0.759 | 0.691 | 0.664 | 0.53 | 27.1 | 20.9 | 20.7 |
| Cc1ccc(C(=O)N(CCCN)[C@@H](c2oc3cc(Cl)ccc3c(=O)c2Cc2ccccc2)C(C)C)cc1.Cl | 13.7 | 13 | 14 | 13.6 | 25.2 | 22 | 0.217 | 0.248 | 0.234 | 0.222 | 0.0425 | 0.029 | 20.2 | 15.1 | 11.9 |
| C[C@H]1O[C@@H](O[C@H]2CC[C@@]3(C)[C@@H](CC[C@]4(C)[C@@H]3C=C[C@]35OC[C@@]6(CCC(C)(C)C[C@H]63)[C@@H](O)C[C@]54C)[C@]2(C)CO)[C@H](O)[C@@H](O[C@@H]2O[C@H](CO)[C@@H](O)[C@H](O)[C@H]2O)[C@H]1O | 5.15 | 6.79 | 10.6 | 9.69 | 27.5 | 29.4 | 0.96 | 0.765 | 0.155 | 0.3 | 0.0734 | 0.0918 | 35.7 | 16.7 | 15.5 |
| Cc1ccc(C(=O)N(CCCN)[C@@H](c2nc3cc(Cl)ccc3c(=O)n2Cc2ccccc2)C(C)C)cc1 | 11.9 | 10.6 | 13.1 | 13.9 | 28.6 | 17.6 | 0.22 | 0.209 | 0.227 | 0.225 | 0.0173 | 0.0529 | 18.6 | 21.1 | 9.6 |
| O=NN(CCCl)C(=O)NCCCl | 4.49 | 4.2 | 5.44 | 4.8 | 6.45 | 8.52 | 1.01 | 0.934 | 0.932 | 0.946 | 0.929 | 0.856 | 44.8 | 47.8 | 42.3 |
| C=C(C)[C@H]1Cc2c(ccc3c2O[C@@H]2COc4cc(OC)c(OC)cc4[C@@H]2C3=O)O1 | 10.4 | 11.4 | 15.6 | 15.6 | 15.4 | 15.4 | 0.719 | 0.643 | 0.485 | 0.349 | 0.311 | 0.332 | 15 | 17.9 | 21.1 |
| O=c1c2ccccc2[se]n1-c1ccccc1 | 4.12 | 5.85 | 11.4 | 12.8 | 12.8 | 18 | 0.989 | 0.995 | 0.973 | 0.98 | 0.521 | 0.312 | 49.5 | 33.9 | 22.3 |
| O=C(OC[C@H]1O[C@@H](OC(=O)c2cc(O)c(O)c(OC(=O)c3cc(O)c(O)c(O)c3)c2)[C@H](OC(=O)c2cc(O)c(O)c(OC(=O)c3cc(O)c(O)c(O)c3)c2)[C@@H](OC(=O)c2cc(O)c(O)c(OC(=O)c3cc(O)c(O)c(O)c3)c2)[C@@H]1OC(=O)c1cc(O)c(O)c(OC(=O)c2cc(O)c(O)c(O)c2)c1)c1cc(O)c(O)c(OC(=O)c2cc(O)c(O)c(O)c2)c1 | 4.17 | 4.59 | 6.15 | 5.91 | 6.39 | 8.09 | 1.02 | 1.02 | 1.02 | 0.945 | 0.945 | 0.697 | 48.2 | 48.5 | 27.9 |
| C/C(=C\c1csc(C)n1)[C@@H]1C[C@@H]2O[C@]2(C)CCC[C@H](C)[C@H](O)[C@@H](C)C(=O)C(C)(C)[C@@H](O)CC(=O)O1 | 21.1 | 20.7 | 22.7 | 22.5 | 23.6 | 23.9 | 0.22 | 0.223 | 0.284 | 0.468 | 0.553 | 0.521 | 21.8 | 21.4 | 21.2 |
| Cc1csc(=NC2CCCCC2)n1/N=C/c1ccc(O)c(O)c1O | 6.78 | 7.67 | 6 | 5.67 | 5.75 | 7.13 | 1.01 | 1.01 | 0.985 | 1 | 1.02 | 0.405 | 49.7 | 53.9 | 40.5 |
| C=C1[C@@H](C)[C@H]2[C@H](Cc3ccccc3)NC(=O)[C@]23[C@H](OC(C)=O)/C=C/[C@@](C)(O)C(=O)[C@@H](C)C/C=C/[C@H]3[C@@H]1O | 14.5 | 15.6 | 16.1 | 17.4 | 18.8 | 19.2 | 0.575 | 0.517 | 0.557 | 0.623 | 0.562 | 0.494 | 24.3 | 26 | 27.2 |
| COC1=C2C[C@@H](C)C[C@H](OC)[C@H](O)[C@@H](C)/C=C(\C)[C@H](OC(N)=O)[C@@H](OC)/C=C\C=C(/C)C(=O)NC(=CC1=O)C2=O | 8.75 | 12.7 | 13 | 14 | 13.3 | 14.5 | 0.954 | 0.911 | 0.867 | 0.759 | 0.663 | 0.619 | 20.3 | 18.8 | 20.8 |
| C=C1[C@@H](C)[C@H]2[C@H](Cc3ccccc3)NC(=O)[C@]23OC(=O)/C=C/[C@H](O)CCC[C@@H](C)C/C=C/[C@H]3[C@@H]1O | 9.61 | 11.2 | 9.71 | 10.7 | 12 | 16.1 | 0.968 | 0.954 | 0.865 | 0.715 | 0.722 | 0.667 | 29 | 26.1 | 26.1 |
